This note sets out measurements from patent publication US20110046223A1, “TREATMENT OF NEUROFIBROMATOSIS” (RAMOT AT TEL-AVIV UNIVERSITY LTD., priority 2006, published 2011).

What all share (type): cell-based, human
Assay [1] relates to RalA-GTP. The assay is described as follows: steady-state RalA-GTP, GST-RalBD pulldown assay. As to the method:
(§1) Unless otherwise indicated, cells were lysed 48 hours after being treated with lysis buffer, as described in Haklai, et al., supra. […] Protein bands were visualized by ECL and quantified by densitometry with Image Master VDS-CL (Amersham) using TINA 2.0 software (Ray Tests). To obtain reliable comparisons between replicated experiments for statistical analysis, a standardization procedure was used, in which the density of each given protein band as recorded with its specific Ab, was normalized. […] The standard average density was defined as 1.0, and each of the individually determined bands was related to this value. […] Actin cytoskeletal elements were labeled with rhodamine-phalloidin, and digital fluorescence images were collected on a Zeiss LSM 510 confocal microscope fitted with fluorescein and rhodamine filters, as described in Gana-Weisz, M., et al., supra.
Next, to determine whether down-regulation of active Ras by FTS was accompanied by inhibition of Ras signaling, the effect of FTS on steady-state levels of phospho-ERK, phospho-Akt, and RalA-GTP as read-outs of the three prominent Ras pathways, Ras/Raf/MEK/ERK, Ras/PI3K/Akt, and Ras/RalGEF/RalA, respectively, was examined. […]

Assay [2] concerns ST88-14, 90-8, T265P21 and non-NF-1 STS26T cells. The assay is described as follows: cell growth, photomicrographs of control and FTS-treated cells. The conditions noted are these: 50 μM FTS, two days. As for the experimental part:
The human NF-1 MPNST cell lines ST88-14, T265P21 and 90-8 and the non-NF-1 human MPNST cell line STS26T were obtained from Dr. Nancy Ratner. T265P21, 90-8, and ST88-14 cells were maintained in RPMI/15% fetal calf serum (FCS) medium and STS26T cells were maintained in DMEM/10% FCS, as described in Weisz, B., et al., supra. Cells were plated at a density of 1×10^6 cells per 10-cm plate for biochemical and immunoblotting assays, 2.5×10^3 cells/well in 24-well plates for cell-growth assays, or on glass cover slips (5×10^4 cells per 35-mm dish) for labeling of actin cytoskeletal elements. The cells were incubated for 24 hours, treated with the indicated concentration of FTS or with the vehicle (0.1% DMSO) (control) for the times specified in each of the experiments, and then subjected to the various assays as described below. The effect of FTS on cell growth was estimated by direct counting of cells collected from each well, as described in Weisz, B., et al., supra.
To determine the effects of the Ras inhibitor FTS on the growth rates of the NF-1 cell lines ST88-14, 90-8, T265P21 and the non-NF-1 STS26T cells, the cells were grown for two days in the absence and in the presence of 50 μM FTS, and then photomicrographed. […] Additionally, cells were grown for three days and then detached, collected, and counted as described in Methods to determine dose-dependent inhibition by FTS.

The test system of assay [3] is phospho-ERK. The assay is described as follows: serum-stimulated phospho-ERK, kinetic study. As to the method:
as §1
First, the time courses of serum-stimulated GTP loading of Ras and serum-stimulated activation of signals downstream of Ras were determined. […]

As for `CC(C)=CCC/C(C)=C/CC/C(C)=C/CSc1ccccc1C(=O)O` [FTS, S-farnesylthiosalicylic acid], the “steady-state RalA-GTP” value in assay [1] (all NF-1 cell lines) was “significant reduction”. In addition, the “steady-state RalA-GTP” value in assay [1] (non-NF-1 STS26T cells) is “significant reduction”. For the same compound, in assay [2], the cell death result is reported as “no significant cell death” and the “cell number (photomicrographs)” value is “drug-induced reduction in cell number”. Further, the “serum-stimulated increase in phospho-ERK” value in assay [3] (STS26T cells, serum-starved 24 hours, stimulated with 10% serum) is listed as “inhibited”. Also, the “serum-stimulated increase in phosphor-ERK” value in assay [3] (all NF-1 cell lines (T265P21, ST88-14, 90-8)) was “reduced”.
